Measurements taken from PubChem BioAssay AID1996.
Values after ≈ are worked out from the molar mass of the structure shown.

Details: buffer; pH 7.4; 200.0 µM

solubility kinetic | SMILES
1.2 µg/mL (≈ 3.96 µM) | CCC1(CC)Cc2ccccc2-c2nc(CCl)[nH]c(=O)c21
42.6 µg/mL (≈ 136 µM) | CN(C)C(=O)CSc1ncccc1-c1nc2ccccc2[nH]1
> 52.6 µg/mL | CCNC(=O)CC1SC(=Nc2ccc(C)c([N+](=O)[O-])c2)N(C)C1=O (centres undefined)
> 45.8 µg/mL | COc1ccc(CC(=O)OCC(=O)N2CCCC(C)C2)cc1 (centres undefined)
> 40.8 µg/mL | C=CCn1cccc(C(=O)Nc2ccc(F)cc2)c1=O
1.5 µg/mL (≈ 5.97 µM) | CCCC(=O)Nc1ccc2c(c1)Cc1ccccc1-2
10.8 µg/mL (≈ 32.3 µM) | O=C(COC(=O)Cc1ccccc1[N+](=O)[O-])NCC1CCCCC1
> 42.5 µg/mL | Cc1cccc(NC(=O)Cn2c(=O)oc3ccccc32)n1
41.1 µg/mL (≈ 111 µM) | CC1(C)CC(NC(=O)c2ccc(-c3ccc([N+](=O)[O-])cc3)o2)CC(C)(C)N1
< 0.7 µg/mL | Cc1ccc(N=CC2=C(O)CC(c3ccccc3Cl)CC2=O)cc1 (centres undefined)
> 48.4 µg/mL | O=C(NNC(=O)c1ccco1)c1csc(N2CCOCC2)n1
21.3 µg/mL (≈ 84.1 µM) | Cc1ccc(S(=O)(=O)N2CCCC(C)C2)cc1 (centres undefined)
8.4 µg/mL (≈ 24.3 µM) | Nc1cc(=O)[nH]c(SCC(=O)Nc2cccc(Cl)c2Cl)n1
> 37.1 µg/mL | CC1CC1C(=O)OCC(=O)NCc1ccccc1 (centres undefined)
38.1 µg/mL (≈ 146 µM) | CC(=O)Oc1ccc(C(=O)Nc2cc(C)on2)cc1
3.8 µg/mL (≈ 11.2 µM) | COc1ccc(C(=O)NCC2(c3ccccc3)CCCC2)c(OC)c1
6.3 µg/mL (≈ 21 µM) | COc1ccc(C(=O)NC2CCSc3ccccc32)cc1 (centres undefined)

solubility kinetic | SMILES
> 68.3 µg/mL | Cc1ccc(C2(C)NC(=O)N(CC(=O)N(c3ccccc3)C3CCS(=O)(=O)C3)C2=O)cc1 (centres undefined)
6.4 µg/mL (≈ 15.2 µM) | CC(=O)c1c(C)[nH]c(C(=O)CN2CCN(S(=O)(=O)c3ccccc3F)CC2)c1C
> 30 µg/mL | C=CCn1c(C)nc2ccccc2c1=O
< 0.7 µg/mL | Fc1ccc(C2CC(c3ccco3)=Nc3ccccc3S2)cc1 (centres undefined)
2.7 µg/mL (≈ 6.93 µM) | Cc1sc2ncnc(SCC(=O)N3CCCC(C(F)(F)F)C3)c2c1C (centres undefined)
19.9 µg/mL (≈ 68.8 µM) | CCCOc1ccc(CNC(=O)Cc2cccs2)cc1
> 46.4 µg/mL | CCn1c(SCC(=O)Nc2nccs2)nnc1C1CC1
> 47.6 µg/mL | CCc1cccc(NC(=O)CCCCCC2NC(=O)NC2C)c1 (centres undefined)
0.4 µg/mL (≈ 1.4 µM) | Cc1ccccc1OCC(=O)Nc1ccc([N+](=O)[O-])cc1
43 µg/mL (≈ 119 µM) | COc1cc2c(cc1OC)C(c1cccc(Br)c1)NC(=O)C2 (centres undefined)
> 47.1 µg/mL | CN1CCN(C(=O)c2cc3cc(Cl)ccc3[nH]2)CC1.Cl
41.6 µg/mL (≈ 120 µM) | O=C(OC(C(=O)NC1CCCCC1)c1ccccc1F)c1ccco1 (centres undefined)
19.7 µg/mL (≈ 71.6 µM) | Cc1cc(NC(=O)COc2ccccc2C(N)=O)no1
> 39.6 µg/mL | O=C(Nc1ncccc1O)c1ccc2ccccc2c1
27.3 µg/mL (≈ 94.7 µM) | CCSc1nc2sccc2c(=O)n1-c1ccccc1
34.7 µg/mL (≈ 137 µM) | CC1=C(C(N)=O)C(c2cccs2)NC(=S)N1 (centres undefined)
54.1 µg/mL (≈ 144 µM) | CCOC(=O)c1c(CC(C)C)csc1NC(=O)c1ccccc1C(=O)O

Continued, compound first:

SMILES | solubility kinetic
CC(C)(CNC(=O)c1ccc(Br)o1)N1CCOCC1 | 42.8 µg/mL (≈ 129 µM)
Cc1noc(C)c1COc1cccc(C(=O)OC(C)C#N)c1 (centres undefined) | 43.2 µg/mL (≈ 144 µM)
CCCS(=O)(=O)N1CCC(C(=O)NCCC(C)C)CC1 | > 45.7 µg/mL
N#CCN1CCCC(C(N)=O)C1 (centres undefined) | 19.6 µg/mL (≈ 117 µM)
Cc1ccc(NC(=O)CC(=O)Nc2ccc(C)cc2C)c(C)c1 | 6.3 µg/mL (≈ 20.3 µM)
CN1CCN(S(=O)(=O)c2cccc(C(=O)N3CCN(c4ccccc4)CC3)c2)CC1 | 63.6 µg/mL (≈ 148 µM)
CC(=O)NC(CC(=O)O)c1ccc([N+](=O)[O-])cc1 (centres undefined) | > 37.8 µg/mL
COC(=O)c1cc(OC)c(OC)cc1NC(=S)N1CCCC1 | 6.3 µg/mL (≈ 19.4 µM)
O=C(O)CC(NC(=O)Cc1ccccc1)c1ccccc1 (centres undefined) | 27.4 µg/mL (≈ 96.7 µM)
COc1ccc(N2C(=O)CSC2c2ccccc2[N+](=O)[O-])cc1 (centres undefined) | 47.7 µg/mL (≈ 144 µM)
CCOC(=O)Nc1ccc2c(COC(=O)C(NS(=O)(=O)c3ccc(Cl)cc3)C(C)O)cc(=O)oc2c1 (centres undefined) | 20.5 µg/mL (≈ 38 µM)
CC(=O)c1ccc(OCC(=O)Nc2ccccc2N2CCCC2)cc1 | 44.4 µg/mL (≈ 131 µM)
O=C(O)/C=C/C(=O)Nc1ccc(Oc2ccccc2)cc1 | > 42.5 µg/mL
Cc1cc(C)c(S(=O)(=O)c2cc(F)ccc2C)c(Cl)n1 | 44.6 µg/mL (≈ 142 µM)
COc1ccc(CNc2ccc([N+](=O)[O-])cc2C)cc1 | 2.1 µg/mL (≈ 7.71 µM)
Nc1cc(C(=O)OCC(=O)Nc2cccc(S(=O)(=O)N3CCOCC3)c2)ccc1Cl | 24.4 µg/mL (≈ 53.8 µM)
Cc1ccc(SCCN2CCN(C)CC2)cc1.Cl | 35.5 µg/mL
Clc1cc(Br)ccc1NCc1cccnc1 | 24.7 µg/mL (≈ 83 µM)
CCC(C)NC(=O)c1ccc(CSCc2ccccc2Cl)o1 (centres undefined) | 30.7 µg/mL (≈ 90.9 µM)
O=C(Nc1ccccc1)NC1CCN(Cc2c(F)cccc2Cl)CC1 | 6.8 µg/mL (≈ 18.8 µM)
O=C(/C=C/Nc1ccc(F)c(Cl)c1)c1ccccc1 | 0.7 µg/mL (≈ 2.54 µM)
COc1ccc2oc(=O)c(C(=O)NCCc3ccc(OC)c(OC)c3)cc2c1 | < 0.8 µg/mL
O=S(=O)(NCc1ccco1)c1ccc2ccccc2c1 | 11.3 µg/mL (≈ 39.3 µM)
COc1cc(NC(=O)COC(=O)CC2CC3CCC2C3)cc(OC)c1 (centres undefined) | 14.6 µg/mL (≈ 42 µM)
CS(=O)(=O)c1ccccc1C(=O)Nc1ccc(S(=O)(=O)N2CCCC2)cc1 | > 61.3 µg/mL
